From the NIST ThermoML archive (doi:10.1021/je800101v)
± gives the expanded uncertainty stated by the source.

Tests used:
[1] = for surface tension liquid-gas: Ring tensiometer; for mass density: 101.33 kPa, Liquid
[2] = xn = mol fraction of the nth substance listed; settings: Ring tensiometer

## OCCO [1,2-ethanediol]
[1]; 298.15 K
  surface tension liquid-gas: 47.79 ± 0.68 mN/m
[1]; 303.15 K
  surface tension liquid-gas: 47.57 ± 0.67 mN/m
[1]; 308.15 K
  surface tension liquid-gas: 47.25 ± 0.67 mN/m
[1]; 313.15 K
  surface tension liquid-gas: 47.1 ± 0.67 mN/m
[1]; 318.15 K
  surface tension liquid-gas: 46.4 ± 0.66 mN/m

## OCCO [1,2-ethanediol] + CCCCCCO
[2]; 298.15 K, x2 = 0
  surface tension liquid-gas: 47.79 ± 0.68 mN/m
[2]; 303.15 K, x2 = 0
  surface tension liquid-gas: 47.57 ± 0.67 mN/m
[2]; 308.15 K, x2 = 0
  surface tension liquid-gas: 47.25 ± 0.67 mN/m
[2]; 313.15 K, x2 = 0
  surface tension liquid-gas: 47.1 ± 0.67 mN/m
[2]; 318.15 K, x2 = 0
  surface tension liquid-gas: 46.4 ± 0.66 mN/m

## CCCCCCCO [heptan-1-ol]
[1]; 298.15 K
  surface tension liquid-gas: 26.38 ± 0.42 mN/m
[1]; 298.15 K, Vibrating tube method
  mass density: 818.11 ± 0.81 kg/m3

## CCCCCCO [hexan-1-ol]
[1]; 298.15 K
  surface tension liquid-gas: 25.69 ± 0.42 mN/m
  mass density: 815.02 ± 0.98 kg/m3

## CCCCCCO [hexan-1-ol] + OCCO
[2]; 298.15 K, x1 = 0.0429
  surface tension liquid-gas: 32.5 ± 0.52 mN/m
[2]; 298.15 K, x1 = 0.1009
  surface tension liquid-gas: 29.07 ± 0.45 mN/m
[2]; 298.15 K, x1 = 0.2761
  surface tension liquid-gas: 28 ± 0.44 mN/m
[2]; 298.15 K, x1 = 0.3098
  surface tension liquid-gas: 27.9 ± 0.44 mN/m
[2]; 298.15 K, x1 = 0.35
  surface tension liquid-gas: 27.38 ± 0.44 mN/m
[2]; 298.15 K, x1 = 0.3942
  surface tension liquid-gas: 27.32 ± 0.43 mN/m
[2]; 298.15 K, x1 = 0.4468
  surface tension liquid-gas: 27.24 ± 0.43 mN/m
[2]; 298.15 K, x1 = 0.5079
  surface tension liquid-gas: 27.03 ± 0.43 mN/m
[2]; 298.15 K, x1 = 0.5405
  surface tension liquid-gas: 26.82 ± 0.43 mN/m
[2]; 298.15 K, x1 = 0.6061
  surface tension liquid-gas: 26.71 ± 0.43 mN/m
[2]; 298.15 K, x1 = 0.6452
  surface tension liquid-gas: 26.62 ± 0.43 mN/m
[2]; 298.15 K, x1 = 0.6897
  surface tension liquid-gas: 26.51 ± 0.43 mN/m
[2]; 298.15 K, x1 = 0.7407
  surface tension liquid-gas: 26.43 ± 0.43 mN/m
[2]; 298.15 K, x1 = 0.8
  surface tension liquid-gas: 26.34 ± 0.43 mN/m
[2]; 298.15 K, x1 = 0.8333
  surface tension liquid-gas: 26.28 ± 0.43 mN/m
[2]; 298.15 K, x1 = 0.9091
  surface tension liquid-gas: 26.22 ± 0.43 mN/m
[2]; 298.15 K, x1 = 0.9524
  surface tension liquid-gas: 26.16 ± 0.42 mN/m
[2]; 303.15 K, x1 = 0.0429
  surface tension liquid-gas: 32.81 ± 0.49 mN/m
[2]; 303.15 K, x1 = 0.1009
  surface tension liquid-gas: 29.49 ± 0.46 mN/m
[2]; 303.15 K, x1 = 0.2761
  surface tension liquid-gas: 27.47 ± 0.44 mN/m
[2]; 303.15 K, x1 = 0.3098
  surface tension liquid-gas: 27.32 ± 0.43 mN/m
[2]; 303.15 K, x1 = 0.35
  surface tension liquid-gas: 27.12 ± 0.43 mN/m
[2]; 303.15 K, x1 = 0.3942
  surface tension liquid-gas: 26.98 ± 0.43 mN/m
[2]; 303.15 K, x1 = 0.4468
  surface tension liquid-gas: 26.78 ± 0.43 mN/m
[2]; 303.15 K, x1 = 0.5079
  surface tension liquid-gas: 26.48 ± 0.43 mN/m
[2]; 303.15 K, x1 = 0.5405
  surface tension liquid-gas: 26.38 ± 0.42 mN/m
[2]; 303.15 K, x1 = 0.6061
  surface tension liquid-gas: 26.17 ± 0.42 mN/m
[2]; 303.15 K, x1 = 0.6452
  surface tension liquid-gas: 25.97 ± 0.42 mN/m
[2]; 303.15 K, x1 = 0.6897
  surface tension liquid-gas: 25.75 ± 0.42 mN/m
[2]; 303.15 K, x1 = 0.7407
  surface tension liquid-gas: 25.48 ± 0.42 mN/m
[2]; 303.15 K, x1 = 0.8
  surface tension liquid-gas: 25.38 ± 0.41 mN/m
[2]; 303.15 K, x1 = 0.8333
  surface tension liquid-gas: 25.25 ± 0.41 mN/m
[2]; 303.15 K, x1 = 0.9091
  surface tension liquid-gas: 25.16 ± 0.41 mN/m
[2]; 303.15 K, x1 = 0.9524
  surface tension liquid-gas: 25.02 ± 0.41 mN/m
[2]; 308.15 K, x1 = 0.0429
  surface tension liquid-gas: 32.68 ± 0.49 mN/m
[2]; 308.15 K, x1 = 0.1009
  surface tension liquid-gas: 29.34 ± 0.46 mN/m
[2]; 308.15 K, x1 = 0.2761
  surface tension liquid-gas: 27.31 ± 0.43 mN/m
[2]; 308.15 K, x1 = 0.3098
  surface tension liquid-gas: 27.19 ± 0.43 mN/m
[2]; 308.15 K, x1 = 0.35
  surface tension liquid-gas: 26.98 ± 0.43 mN/m
[2]; 308.15 K, x1 = 0.3942
  surface tension liquid-gas: 26.83 ± 0.43 mN/m
[2]; 308.15 K, x1 = 0.4468
  surface tension liquid-gas: 26.63 ± 0.43 mN/m
[2]; 308.15 K, x1 = 0.5079
  surface tension liquid-gas: 26.35 ± 0.42 mN/m
[2]; 308.15 K, x1 = 0.5405
  surface tension liquid-gas: 26.25 ± 0.42 mN/m
[2]; 308.15 K, x1 = 0.6061
  surface tension liquid-gas: 26.01 ± 0.42 mN/m
[2]; 308.15 K, x1 = 0.6452
  surface tension liquid-gas: 25.78 ± 0.42 mN/m
[2]; 308.15 K, x1 = 0.6897
  surface tension liquid-gas: 25.58 ± 0.42 mN/m
[2]; 308.15 K, x1 = 0.7407
  surface tension liquid-gas: 25.3 ± 0.41 mN/m
[2]; 308.15 K, x1 = 0.8
  surface tension liquid-gas: 25.19 ± 0.41 mN/m
[2]; 308.15 K, x1 = 0.8333
  surface tension liquid-gas: 25.17 ± 0.41 mN/m
[2]; 308.15 K, x1 = 0.9091
  surface tension liquid-gas: 24.97 ± 0.41 mN/m
[2]; 308.15 K, x1 = 0.9524
  surface tension liquid-gas: 24.81 ± 0.41 mN/m
[2]; 313.15 K, x1 = 0.0429
  surface tension liquid-gas: 31.55 ± 0.48 mN/m
[2]; 313.15 K, x1 = 0.1009
  surface tension liquid-gas: 29.27 ± 0.45 mN/m
[2]; 313.15 K, x1 = 0.2761
  surface tension liquid-gas: 27.15 ± 0.43 mN/m
[2]; 313.15 K, x1 = 0.3098
  surface tension liquid-gas: 27.02 ± 0.43 mN/m
[2]; 313.15 K, x1 = 0.35
  surface tension liquid-gas: 26.81 ± 0.43 mN/m
[2]; 313.15 K, x1 = 0.3942
  surface tension liquid-gas: 26.68 ± 0.43 mN/m
[2]; 313.15 K, x1 = 0.4468
  surface tension liquid-gas: 26.47 ± 0.43 mN/m
[2]; 313.15 K, x1 = 0.5079
  surface tension liquid-gas: 26.17 ± 0.42 mN/m
[2]; 313.15 K, x1 = 0.5405
  surface tension liquid-gas: 26.07 ± 0.42 mN/m
[2]; 313.15 K, x1 = 0.6061
  surface tension liquid-gas: 25.85 ± 0.42 mN/m
[2]; 313.15 K, x1 = 0.6452
  surface tension liquid-gas: 25.65 ± 0.42 mN/m
[2]; 313.15 K, x1 = 0.6897
  surface tension liquid-gas: 25.38 ± 0.41 mN/m
[2]; 313.15 K, x1 = 0.7407
  surface tension liquid-gas: 25.16 ± 0.41 mN/m
[2]; 313.15 K, x1 = 0.8
  surface tension liquid-gas: 25.02 ± 0.41 mN/m
[2]; 313.15 K, x1 = 0.8333
  surface tension liquid-gas: 24.98 ± 0.41 mN/m
[2]; 313.15 K, x1 = 0.9091
  surface tension liquid-gas: 24.78 ± 0.41 mN/m
[2]; 313.15 K, x1 = 0.9524
  surface tension liquid-gas: 24.61 ± 0.41 mN/m
[2]; 318.15 K, x1 = 0.0429
  surface tension liquid-gas: 31.38 ± 0.52 mN/m
[2]; 318.15 K, x1 = 0.1009
  surface tension liquid-gas: 28.97 ± 0.45 mN/m
[2]; 318.15 K, x1 = 0.2761
  surface tension liquid-gas: 26.91 ± 0.43 mN/m
[2]; 318.15 K, x1 = 0.3098
  surface tension liquid-gas: 26.8 ± 0.43 mN/m
[2]; 318.15 K, x1 = 0.35
  surface tension liquid-gas: 26.63 ± 0.43 mN/m
[2]; 318.15 K, x1 = 0.3942
  surface tension liquid-gas: 26.47 ± 0.43 mN/m
[2]; 318.15 K, x1 = 0.4468
  surface tension liquid-gas: 26.31 ± 0.42 mN/m
[2]; 318.15 K, x1 = 0.5079
  surface tension liquid-gas: 25.97 ± 0.42 mN/m
[2]; 318.15 K, x1 = 0.5405
  surface tension liquid-gas: 25.88 ± 0.42 mN/m
[2]; 318.15 K, x1 = 0.6061
  surface tension liquid-gas: 25.67 ± 0.42 mN/m
[2]; 318.15 K, x1 = 0.6452
  surface tension liquid-gas: 25.48 ± 0.42 mN/m
[2]; 318.15 K, x1 = 0.6897
  surface tension liquid-gas: 25.21 ± 0.41 mN/m
[2]; 318.15 K, x1 = 0.7407
  surface tension liquid-gas: 24.99 ± 0.41 mN/m
[2]; 318.15 K, x1 = 0.8
  surface tension liquid-gas: 24.81 ± 0.41 mN/m
[2]; 318.15 K, x1 = 0.8333
  surface tension liquid-gas: 24.75 ± 0.41 mN/m
[2]; 318.15 K, x1 = 0.9091
  surface tension liquid-gas: 24.56 ± 0.41 mN/m
[2]; 318.15 K, x1 = 0.9524
  surface tension liquid-gas: 24.45 ± 0.4 mN/m

## CCCCCO [pentan-1-ol]
[1]; 298.15 K
  surface tension liquid-gas: 24.89 ± 0.41 mN/m
  mass density: 811.1 ± 0.99 kg/m3
